From US6911470B1, “Polyoxometalate compounds as antiviral agents” (priority 1988, dated 2005)
Where “and” joins values, the source holds several entries; their conditions need not be identical. Equal values may be shown once. Read-outs that look alike come from different tables or passages of the source.

What was measured:
[1] = tested on: human granulocyte-macrophage precursor cells; assay type: cell-based
Description: Preparation of Cells. Human bone marrow cells were collected by aspiration from the posterior iliac crest of normal healthy volunteers, treated with heparin and the mononuclear population separated by Ficoll-Hypaque gradient centrifugation. Cells were washed twice in Hanks balanced salt solution, counted with a hemacytometer and their viability was >98% as assessed by trypan blue exclusion.
Assay of Colony-Forming Unit Granulocyte-Macrophage (CFU-GM) for Drug Cytotoxicity. The culture assay for CFU-GM was performed using a bilayer soft-agar method as recently described (Sommadossi et al, Antimicrob. Agents Chemother. 31, 452-454, 1987). McCoy 5A nutrient medium supplemented with 15% dialyzed fetal bovine serum (heat inactivated at 56° C. for 30 min.) (Gibco Laboratories, Grand Island, N.Y.) was used in all experiments. This medium was completely lacking in thymidine and uridine. Cells were cloned in 0.3% agar in the presence of increasing concentrations of the modulating compound or in medium alone (control). After 14 days of incubation at 37° C. in a humidified atmosphere of 5% CO2 in air, colonies (≧50 cells) were counted using an inverted microscope.
The toxicities of a variety of polyoxometalates with respect to human bone marrow cells (human granulocyte-macrophage precursor cells) were assessed.

HIV-1 (strain LAV-1) = assay: microbe, parasite or virus in culture; assay type: cell-based
Description: Cells. Human peripheral blood mononuclear cells (PBMC) from healthy HIV-1 seronegative and hepatitis B virus seronegative donors were isolated by Ficoll-Hypaque discontinuous gradient centrifugation at 1,000×g for 30 minutes, washed twice in phosphate-buffered saline (pH 7.2; PBS), and pelleted at 300×g for 10 minutes. Before infection, the cells were stimulated by phytohemagglutinin (PHA) at a concentration of 6 μg/ml for three days in RPMI 1640 medium supplemented with 15% heat-inactivated fetal calf serum, 1.5 mM L-glutamine, penicillin (100 U/ml), streptomycin (100 μg/ml), and 4mM sodium bicarbonate buffer.
Viruses. HIV-1 (strain LAV-1) was obtained from Dr. P. Feorino (Centers for Disease Control, Atlanta, Ga.). The virus was propagated in human PBMC using RPMI 1640 medium, as described previously (McDougal et al, J. Immun. Meth. 76, 171-183, 1985) without PHA and supplemented with 7% v/v interleukin-2 (Advanced Biotechnologies, Silver Spring, Md.), 7 μg/ml DEAE-dextran (Pharmacia, Uppsala, Sweden), and 370 U/ml anti-human leucocyte (alpha) interferon (ICN, Lisle, Ill.). Virus obtained from cell-free culture supernatant was titrated and stored in aliquots at −80° C. until use.
Inhibition of virus replication in human PBMC. Uninfected PHA-stimulated human PBMC were uniformly distributed among 25 cm^2 flasks to give a 5 ml suspension containing about 2×10^6 cells/ml. Suitable dilutions of virus were added to infect the cultures. The mean reverse transcriptase (RT) activity of the inocula was 50,000 decompositions per min/ml corresponding to about 100 TCID50, as determined by Groopman et al. (Groopman et al, AIDS Res. Human Retro. 3, 71-85, 1987. The drugs at twice their final concentrations in 5 ml of RPMI 1640 medium, supplemented as described above, were added to the cultures. Uninfected and untreated PBMC at equivalent cell densities were grown in parallel as controls. The cultures were maintained in a humidified 5% CO2-95% air incubator at 37° C. for six days after infection, at which point all cultures were sampled for supernatant reverse transcriptase (RT) activity.
RT activity assay. Six ml supernatant from each culture was clarified from cells at 300×g for 10 minutes. Virus particles were pelleted from 5 ml samples at 40,000 rpm for 30 minutes using a Beckman 70.1 Ti rotor and suspended in 200 μl of virus disrupting buffer (50 mM Tris-Cl, pH 7.8, 800 mM NaCl, 20% glycerol, 0.5 mM phenylmethyl sulfonyl fluoride, and 0.5% Triton X-100).
The RT assay was performed in 96-well microtiter plates, as described by Spira et al. (Spira et al, J. Clin. Microbiol. 22, 97-99, 1987). The reaction mixture, which contained 50 mM Tris-Cl pH 7.8, 9 mM MgCl2, 5 mM dithiothreitol (DTT), 4.7 μg/ml (rA)n. (dT)12-18, 140 μM dATP, and 0.22 μM [^3H]TTP, specific activity 78.0 Ci/mmol, equivalent to 17,300 cpm/pmol; NEN Research Products, Boston, Mass., was added to each well. The sample (20 μl) was added to the reaction mixture which was then incubated at 37° C. for 2 hours. The reaction was terminated by the addition of 100 μl 10% trichloroacetic acid (TCA) containing 0.45 mM sodium pyrophosphate. The acid-insoluble nucleic acids which precipitated were collected on glass filters using a Skatron semi-automatic harvester. The filters were washed with 5% TCA and 70% ethanol, dried, and placed in scintillation vials. Four ml of scintillation fluid (Econofluor, NEN Research Products, Boston, Mass.) were added and the amount of radioactivity in each sample was determined using a Packard Tri-Carb liquid scintillation analyzer (model 2,000CA). The results were expressed in dpm/ml of original clarified supernatant.
Median-effect method. Dose-effect relationships were analyzed by the median-effect equation (Chou et al, Adv. Enz. Regul. 22, 27-55, 1984).

[2] = Table 1, read-out: EC50 Anti-HIV-1 Activity in Human PBM Cells
[3] = Table 2, several values per cell, some in brackets, read-out: EC-50 HIV-1 (LAV-1)

Molecule	EC50 (HIV-1 (strain LAV-1); [2]) [nM]	EC50 (HIV-1 (strain LAV-1); [3])	other results
H4SiW12O40 [Formula 3]	120	–	toxicity to human bone marrow cells (order of toxicity, FIG. 6) [1]: BT and NH4ST<AZT and ST<HPA-23; EC50 (HIV-1 (strain LAV-1); Table 2, several values per cell, some in brackets, listed as α and β H4ST, read-out: EC-50 HIV-1 (LAV-1)): 120 nM and 210 nM; therapeutic index in human PBM cells (HIV-1 (strain LAV-1); from Table 1 EC50 and IC50): highest
Cc1cn([C@H]2C[C@H](N=[N+]=[N-])[C@@H](CO)O2)c(=O)[nH]c1=O [Formula 22, 3′-azido-3′-deoxythymidine, reference compound]	–	–	toxicity to human bone marrow cells (order of toxicity, FIG. 6) ([1]; human, 14 days): BT and NH4ST<AZT and ST<HPA-23; EC50 (HIV-1 (strain LAV-1); Human immunodeficiency virus 1, PBMC, Table 1, read-out: EC50 Anti-HIV-1 Activity in Human PBM Cells): 4 nM; EC50 (HIV-1 (strain LAV-1); Human immunodeficiency virus 1, PBMC, Table 2, several values per cell, some in brackets, read-out: EC-50 HIV-1 (LAV-1)): 3.08 nM
(ArgH^+)m(H^+)4-mST, where m=1-4 [(ARGH^+)nH^+(4−n)ST]	–	1030 nM and 770 nM	–
(Me4N)4W10O32 [Formula 19]	3100	3050 nM and 3300 nM	–
H5BW12O40 [Formula 4]	460	–	toxicity to human bone marrow cells (order of toxicity, FIG. 6) [1]: NH4BT (least toxic)<BT and NH4ST<AZT and ST
(NH4)4W10O32 [Formula 18]	1800	–	–
H3PW12O40 [Formula 2]	14000	14000 nM	–
H6P2W18O62 [Formula 13]	520	520 nM	–
(NH4)6P2W18O62 [Formula 14]	910	910 nM	–
